Laboratory results published in the NIST ThermoML archive (doi:10.1016/j.jct.2010.02.015).
Values joined by “and” are separate entries in the source; they are usually repeats but may differ in a detail not shown here. Equal values may be shown once.

Conditions: Gas, Buoyancy - hydrostatic balance with magnetic suspension - two sinkers

[He] [helium]
Conditions | mass density
323.15 K, 4247.2 kPa | 6.2127 kg/m3
323.15 K, 4247.3 kPa | 6.2128 kg/m3 and 6.2127 kg/m3
323.15 K, 4851.3 kPa | 7.0783 kg/m3 and 7.0787 kg/m3 and 7.0785 kg/m3
323.15 K, 4851.4 kPa | 7.0788 kg/m3
323.15 K, 7550.9 kPa | 10.893 kg/m3
323.15 K, 7551 kPa | 10.8932 kg/m3 and 10.8928 kg/m3 and 10.8929 kg/m3
323.15 K, 7816.5 kPa | 11.2639 kg/m3
323.15 K, 7816.6 kPa | 11.264 kg/m3 and 11.2637 kg/m3
323.15 K, 11516 kPa | 16.3444 kg/m3 and 16.3445 kg/m3
323.15 K, 11561 kPa | 16.4063 kg/m3 and 16.4048 kg/m3
323.15 K, 15406 kPa | 21.5262 kg/m3 and 21.5263 kg/m3 and 21.5265 kg/m3
323.15 K, 15457 kPa | 21.5934 kg/m3 and 21.5932 kg/m3
323.15 K, 15458 kPa | 21.5942 kg/m3
323.15 K, 18569 kPa | 25.6255 kg/m3 and 25.6259 kg/m3
323.15 K, 18570 kPa | 25.6261 kg/m3 and 25.6263 kg/m3
323.15 K, 19211 kPa | 26.4456 kg/m3
323.15 K, 19212 kPa | 26.4466 kg/m3 and 26.446 kg/m3
323.15 K, 24300 kPa | 32.8067 kg/m3
323.15 K, 24301 kPa | 32.8072 kg/m3 and 32.807 kg/m3 and 32.8069 kg/m3
323.15 K, 25287 kPa | 34.0129 kg/m3 and 34.0124 kg/m3
323.15 K, 25288 kPa | 34.0134 kg/m3
323.15 K, 25289 kPa | 34.0147 kg/m3
323.15 K, 30738 kPa | 40.5213 kg/m3
323.15 K, 30739 kPa | 40.522 kg/m3
323.15 K, 30740 kPa | 40.5237 kg/m3 and 40.5227 kg/m3
323.15 K, 32137 kPa | 42.1508 kg/m3
323.15 K, 32138 kPa | 42.1518 kg/m3 and 42.1514 kg/m3
323.15 K, 32139 kPa | 42.1524 kg/m3
323.15 K, 37733 kPa | 48.5152 kg/m3
323.15 K, 37734 kPa | 48.5163 kg/m3
323.15 K, 37735 kPa | 48.5178 kg/m3
323.15 K, 37736 kPa | 48.5195 kg/m3
323.15 K, 37959 kPa | 48.7675 kg/m3
323.15 K, 37960 kPa | 48.7683 kg/m3 and 48.7679 kg/m3
323.15 K, 37961 kPa | 48.7698 kg/m3
350 K, 4685.1 kPa | 6.3268 kg/m3 and 6.3265 kg/m3
350 K, 4685.2 kPa | 6.3269 kg/m3 and 6.3267 kg/m3
350 K, 7452.5 kPa | 9.9569 kg/m3 and 9.9566 kg/m3 and 9.9568 kg/m3
350 K, 11158 kPa | 14.7003 kg/m3 and 14.7004 kg/m3 and 14.7008 kg/m3
350 K, 15078 kPa | 19.5787 kg/m3 and 19.579 kg/m3 and 19.5788 kg/m3
350 K, 15079 kPa | 19.5795 kg/m3
350 K, 18991 kPa | 24.3127 kg/m3 and 24.3128 kg/m3
350 K, 18992 kPa | 24.313 kg/m3 and 24.3135 kg/m3
350 K, 24052 kPa | 30.2468 kg/m3 [middle of 4 runs]
350 K, 30655 kPa | 37.6887 kg/m3
350 K, 30656 kPa | 37.6893 kg/m3 and 37.6888 kg/m3
350 K, 30658 kPa | 37.6913 kg/m3
350 K, 37804 kPa | 45.3924 kg/m3
350 K, 37805 kPa | 45.3931 kg/m3
350 K, 37806 kPa | 45.3936 kg/m3 and 45.3946 kg/m3
375 K, 4669.4 kPa | 5.8931 kg/m3 and 5.893 kg/m3 and 5.8932 kg/m3
375 K, 7673.3 kPa | 9.581 kg/m3 and 9.5809 kg/m3
375 K, 7673.4 kPa | 9.5815 kg/m3 and 9.5814 kg/m3
375 K, 7673.5 kPa | 9.5816 kg/m3
375 K, 11339 kPa | 13.9783 kg/m3 and 13.9779 kg/m3 and 13.9781 kg/m3
375 K, 14992 kPa | 18.2509 kg/m3 and 18.2507 kg/m3
375 K, 14993 kPa | 18.2512 kg/m3 and 18.2509 kg/m3
375 K, 19144 kPa | 22.9816 kg/m3 and 22.9811 kg/m3 and 22.981 kg/m3
375 K, 19145 kPa | 22.9817 kg/m3 and 22.9816 kg/m3
375 K, 24590 kPa | 28.996 kg/m3
375 K, 24591 kPa | 28.9965 kg/m3 and 28.9964 kg/m3 and 28.9966 kg/m3
375 K, 30460 kPa | 35.251 kg/m3
375 K, 30461 kPa | 35.2518 kg/m3 and 35.2512 kg/m3
375 K, 30462 kPa | 35.2524 kg/m3
375 K, 30463 kPa | 35.2534 kg/m3
375 K, 37969 kPa | 42.9318 kg/m3
375 K, 37970 kPa | 42.9322 kg/m3
375 K, 37971 kPa | 42.9332 kg/m3
375 K, 37972 kPa | 42.9339 kg/m3
375 K, 37973 kPa | 42.9352 kg/m3
400 K, 5058.3 kPa | 5.9844 kg/m3 [middle of 4 runs]
400 K, 7571.3 kPa | 8.8831 kg/m3 and 8.8829 kg/m3
400 K, 7571.4 kPa | 8.883 kg/m3 and 8.8833 kg/m3
400 K, 11460 kPa | 13.2766 kg/m3 and 13.2769 kg/m3 and 13.2767 kg/m3
400 K, 14777 kPa | 16.9377 kg/m3 [middle of 4 runs]
400 K, 19142 kPa | 21.6423 kg/m3 and 21.6418 kg/m3 and 21.6416 kg/m3
400 K, 19143 kPa | 21.6425 kg/m3
400 K, 23882 kPa | 26.6105 kg/m3
400 K, 23883 kPa | 26.6111 kg/m3
400 K, 23884 kPa | 26.6117 kg/m3 and 26.6114 kg/m3
400 K, 29989 kPa | 32.8083 kg/m3
400 K, 29990 kPa | 32.8093 kg/m3 and 32.8086 kg/m3
400 K, 29991 kPa | 32.8101 kg/m3
400 K, 37939 kPa | 40.5581 kg/m3
400 K, 37940 kPa | 40.5595 kg/m3
400 K, 37941 kPa | 40.56 kg/m3
400 K, 37942 kPa | 40.5606 kg/m3
425 K, 7875.4 kPa | 8.7027 kg/m3
425 K, 7875.6 kPa | 8.703 kg/m3
425 K, 7875.7 kPa | 8.703 kg/m3
425 K, 7875.8 kPa | 8.7031 kg/m3
425 K, 11516 kPa | 12.586 kg/m3 and 12.5859 kg/m3
425 K, 11517 kPa | 12.5867 kg/m3 and 12.5863 kg/m3
425 K, 15540 kPa | 16.7803 kg/m3
425 K, 15541 kPa | 16.7806 kg/m3 and 16.7809 kg/m3
425 K, 19133 kPa | 20.4427 kg/m3 and 20.4422 kg/m3
425 K, 19134 kPa | 20.4431 kg/m3
425 K, 25118 kPa | 26.3791 kg/m3
425 K, 25119 kPa | 26.3797 kg/m3
425 K, 25120 kPa | 26.3801 kg/m3 and 26.3808 kg/m3
425 K, 31604 kPa | 32.5927 kg/m3
425 K, 31605 kPa | 32.5929 kg/m3
425 K, 31606 kPa | 32.5939 kg/m3
425 K, 31607 kPa | 32.5953 kg/m3
425 K, 37906 kPa | 38.4268 kg/m3
425 K, 37908 kPa | 38.4278 kg/m3
425 K, 37909 kPa | 38.4293 kg/m3
425 K, 37913 kPa | 38.4326 kg/m3
450 K, 4775.3 kPa | 5.0371 kg/m3
450 K, 4775.4 kPa | 5.0373 kg/m3 and 5.0374 kg/m3
450 K, 7655.9 kPa | 8.0083 kg/m3
450 K, 7656 kPa | 8.0084 kg/m3 and 8.0085 kg/m3
450 K, 11907 kPa | 12.3041 kg/m3 [middle of 4 runs]
450 K, 15358 kPa | 15.7171 kg/m3 [middle of 4 runs]
450 K, 18965 kPa | 19.2155 kg/m3
450 K, 18966 kPa | 19.2158 kg/m3 and 19.2164 kg/m3 and 19.2154 kg/m3
450 K, 24940 kPa | 24.8633 kg/m3 and 24.8624 kg/m3
450 K, 24941 kPa | 24.8636 kg/m3
450 K, 24943 kPa | 24.8658 kg/m3
450 K, 31394 kPa | 30.7672 kg/m3
450 K, 31395 kPa | 30.7683 kg/m3
450 K, 31396 kPa | 30.7693 kg/m3
450 K, 31398 kPa | 30.7705 kg/m3
450 K, 37608 kPa | 36.2728 kg/m3
450 K, 37610 kPa | 36.274 kg/m3
450 K, 37611 kPa | 36.2757 kg/m3
450 K, 37613 kPa | 36.2772 kg/m3
475 K, 4812.4 kPa | 4.813 kg/m3 and 4.8133 kg/m3 and 4.8131 kg/m3
475 K, 7937.7 kPa | 7.8707 kg/m3
475 K, 7937.9 kPa | 7.871 kg/m3
475 K, 7938 kPa | 7.8709 kg/m3
475 K, 11474 kPa | 11.2698 kg/m3 and 11.2694 kg/m3
475 K, 11475 kPa | 11.2697 kg/m3 and 11.2696 kg/m3
475 K, 15102 kPa | 14.6905 kg/m3 and 14.6903 kg/m3 and 14.69 kg/m3
475 K, 15103 kPa | 14.6908 kg/m3
475 K, 18995 kPa | 18.29 kg/m3 and 18.2901 kg/m3 and 18.2895 kg/m3
475 K, 18996 kPa | 18.2908 kg/m3
475 K, 25698 kPa | 24.3237 kg/m3 and 24.3233 kg/m3
475 K, 25699 kPa | 24.3246 kg/m3
475 K, 31116 kPa | 29.0563 kg/m3
475 K, 31118 kPa | 29.0576 kg/m3
475 K, 31119 kPa | 29.0583 kg/m3
475 K, 31122 kPa | 29.0604 kg/m3
475 K, 37990 kPa | 34.8852 kg/m3
475 K, 37992 kPa | 34.8873 kg/m3
475 K, 37994 kPa | 34.8888 kg/m3
475 K, 37996 kPa | 34.891 kg/m3
499.99 K, 37868 kPa | 33.2206 kg/m3
500 K, 4928 kPa | 4.6849 kg/m3 and 4.6846 kg/m3 and 4.685 kg/m3
500 K, 7887.1 kPa | 7.4404 kg/m3 and 7.4403 kg/m3
500 K, 7887.3 kPa | 7.4406 kg/m3
500 K, 11580 kPa | 10.8213 kg/m3 and 10.8221 kg/m3 and 10.8212 kg/m3
500 K, 11581 kPa | 10.8215 kg/m3
500 K, 15421 kPa | 14.2721 kg/m3 and 14.2719 kg/m3
500 K, 15422 kPa | 14.2732 kg/m3 and 14.2727 kg/m3
500 K, 19581 kPa | 17.9371 kg/m3 and 17.9369 kg/m3
500 K, 19583 kPa | 17.9388 kg/m3
500 K, 25162 kPa | 22.7413 kg/m3
500 K, 25163 kPa | 22.7419 kg/m3
500 K, 25166 kPa | 22.7445 kg/m3
500 K, 30651 kPa | 27.3437 kg/m3
500 K, 30652 kPa | 27.3446 kg/m3
500 K, 30653 kPa | 27.3454 kg/m3
500 K, 30654 kPa | 27.3459 kg/m3
500 K, 37864 kPa | 33.2185 kg/m3
500 K, 37865 kPa | 33.2203 kg/m3
500 K, 37870 kPa | 33.2239 kg/m3
